Assay results: PMC6757289, “Design and Characterization of SGK3-PROTAC1, an Isoform Specific SGK3 Kinase PROTAC Degrader” (ACS Chemical Biology, 2019)

Biological target: T1, SGK1 (Homo sapiens, UniProt O00141)
T1 sequence (O00141 1-431): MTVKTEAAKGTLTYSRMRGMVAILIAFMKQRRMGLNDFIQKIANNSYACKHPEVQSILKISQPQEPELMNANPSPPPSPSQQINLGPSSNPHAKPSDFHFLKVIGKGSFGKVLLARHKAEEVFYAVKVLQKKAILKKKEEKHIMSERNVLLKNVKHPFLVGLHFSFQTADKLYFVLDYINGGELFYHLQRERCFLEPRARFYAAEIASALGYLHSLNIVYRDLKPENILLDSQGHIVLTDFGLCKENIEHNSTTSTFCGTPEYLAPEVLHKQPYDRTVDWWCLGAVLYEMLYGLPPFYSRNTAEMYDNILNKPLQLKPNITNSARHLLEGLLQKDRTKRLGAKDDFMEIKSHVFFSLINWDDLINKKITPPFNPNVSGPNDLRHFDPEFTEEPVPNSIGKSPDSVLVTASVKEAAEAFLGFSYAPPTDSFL
Assay: SGK1 degradation in JIMT1 cells, immunoblot
Assay type: cell-based
Conditions: JIMT1, up to 3 μM
Procedure: Figure 3 Characterization of cellular activities of SGK3-PROTAC1 and cisSGK3-PROTAC1. (A) HEK293 cells were first treated for 8 h with 0.03–3 μM SGK3-PROTAC1 and cisSGK3-PROTAC1. One hour before lysis, cells were treated with 3 μM AZD5363. Lysates were subjected to immunoblot analysis with the indicated antibodies. […] Lysates were subjected to immunoblot analysis with the indicated antibodies. (C) HEK293 cells were treated for up to 48 h with SGK3-PROTAC1 (0.3 μM), and lysates were analyzed by immunoblot analysis using the indicated antibodies. (D) HEK293 cells were treated for 24 h with SGK3-PROTAC1. Cells were washed three times with DMEM to wash out the compound, and recovery of SGK3 expression protein was analyzed by immunoblot analysis. (E–G) As in A except that CAMA-1 (E), ZR-75-1 (F), and JIMT-1 (G) cells were employed rather than HEK293 cells. […]
All cell treatments were carried out as described in figure legends, to a final DMSO concentration of 0.1% (v/v). Lysates were quantified. […] Lysate concentration was quantified by Bradford Assay, and 10 μg of lysate was loaded in the LDS sample buffer for SDS-PAGE electrophoresis on Novex 4–12% Bis–Tris gels. […] The signal was produced with near-infrared secondary antibodies and detected using a Licor Biosciences Odyssey System, and the signal was quantified in Image Studio Lite.

SMILES: Cc1ccc(F)c(S(=O)(=O)Nc2ccc(-c3nc(OC[C@H]4CN(CCCCCCOCCOCCOCC(=O)N[C@H](C(=O)N5C[C@H](O)C[C@H]5C(=O)NCc5ccc(-c6scnc6C)cc5)C(C)(C)C)CCO4)c4cn[nH]c4n3)cc2)c1 [SGK3-PROTAC1]
- degradation of SGK1: failed to induce degradation of SGK1
